Reference: PMC10796436, “Peptidyl nitroalkene inhibitors of main protease rationalized by computational and crystallographic investigations as antivirals against SARS-CoV-2” (Communications Chemistry, 2024)
“And” between values parts separate entries of the source, which are not always exact repeats. Identical values can stand only once.

What was measured:
[1] = target: Zika Virus NS2B/NS3 (bZiPro) (Zika virus, UniProt A0A024B7W1); experiment: Zika virus protease inhibition, fluorometric assay; assay type: biochemical; details: 20 μM
[2] = target: T1, SARS-CoV-2 M^pro (Severe acute respiratory syndrome coronavirus 2, UniProt P0DTD1); experiment: biochemical; details: M^pro from pMal-M^pro vector
[3] = target: T1, SARS-CoV-2 M^pro; experiment: Mpro FRET inhibition, continuous fluorometric assay (Fluorolog-3), enzyme from pET21-M^pro vector; assay type: biochemical; details: read-out: Ki (μM)^b
[4] = system: SARS-CoV-2; experiment: microbe, parasite or virus in culture; assay type: cell-based; details: for virus titer Mean (%): mean of Exp.1-3
[5] = target: human matriptase (MT-SP1) (Homo sapiens, UniProt Q9Y5Y6); experiment: Matriptase inhibition, fluorometric assay; assay type: biochemical; details: 20 μM
[6] = target: T2, cathepsin L (CatL) (Homo sapiens, UniProt P07711); experiment: Cathepsin L inhibition, fluorometric assay; assay type: biochemical; details: read-out: Ki CatL
T2 construct: purchased Calbiochem (Merck Millipore)

[7] = target: M^pro (Severe acute respiratory syndrome coronavirus 2, UniProt P0DTD1); experiment: biochemical; assay type: binding

Zika Virus NS2B/NS3 (bZiPro), sequence (A0A024B7W1 1425-1464): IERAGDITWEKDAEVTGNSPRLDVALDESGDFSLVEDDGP
Zika Virus NS2B/NS3 (bZiPro), sequence (A0A024B7W1 1503-1680): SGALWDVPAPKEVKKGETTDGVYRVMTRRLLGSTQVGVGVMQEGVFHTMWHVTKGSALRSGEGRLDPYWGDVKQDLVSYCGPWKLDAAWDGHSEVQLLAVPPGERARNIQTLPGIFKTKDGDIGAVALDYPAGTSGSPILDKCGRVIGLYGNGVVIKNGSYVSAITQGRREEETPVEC
human matriptase (MT-SP1), sequence (Q9Y5Y6 615-855 limits assumed, other chains not shown): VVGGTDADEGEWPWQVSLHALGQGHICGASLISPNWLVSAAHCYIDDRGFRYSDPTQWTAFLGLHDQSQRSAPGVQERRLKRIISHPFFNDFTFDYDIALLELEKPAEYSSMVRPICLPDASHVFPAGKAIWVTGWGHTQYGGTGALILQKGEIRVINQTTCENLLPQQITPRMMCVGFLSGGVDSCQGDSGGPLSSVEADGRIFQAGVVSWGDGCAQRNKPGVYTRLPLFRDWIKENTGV
T2 sequence (P07711 114-288 limits assumed): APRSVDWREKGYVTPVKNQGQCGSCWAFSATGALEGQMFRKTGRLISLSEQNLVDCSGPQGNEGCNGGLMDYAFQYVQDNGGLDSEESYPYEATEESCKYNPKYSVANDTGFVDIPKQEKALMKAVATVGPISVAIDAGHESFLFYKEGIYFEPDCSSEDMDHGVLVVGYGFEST
T2 sequence (P07711 292-333 limits assumed): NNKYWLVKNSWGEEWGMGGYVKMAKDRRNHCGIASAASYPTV

COc1cccc2[nH]c(C(=O)N[C@@H](CC(C)C)C(=O)N[C@H](/C=C/[N+](=O)[O-])C[C@@H]3CCNC3=O)cc12 [FGA146]
bZiPro [1]: n.i. (no inhibition (<10%) was observed at a concentration of 20 μM)
Ki [2]: 2.19 ± 0.18 µM
Ki [3]: 0.96 ± 0.06 µM
EC50 ([4]; Huh-7-ACE2, 24h p.t., […]): 900 nM
virus titer Mean (%) ([4]; conc 0.1): 133.333%
virus titer Mean (%) ([4]; conc 0.5): 86.6667%
virus titer (%) of conc 0 ([4]; conc 0.5, single experiments): 100% and 60%
virus titer (pfu/ml) ([4]; conc 0.5, single experiments): 1000000 pfu/ml and 1200000 pfu/ml
virus titer Mean (%) ([4]; conc 1): 22.5%
virus titer Mean (%) ([4]; conc 5): 0.1667%
virus titer (%) of conc 0 ([4]; conc 5, single experiments): 0.4% and 0.04% and 0.06%
virus titer Mean (%) ([4]; conc 10): 0.1023%
virus titer (%) of conc 0 ([4]; conc 10, single experiments): 0.12% and 0.18% and 0.007%
virus titer Mean (%) ([4]; conc 50): 0.02533%
virus titer (%) of conc 0 ([4]; conc 50, single experiments): 0.06% and 0.014% and 0.002%
virus titer Mean (%) ([4]; conc 100): 0.02033%
virus titer (%) of conc 0 ([4]; conc 100, single experiments): 0.04% and 0.018% and 0.003%
MT-SP1 [5]: n.i. (no inhibition (<10%) was observed at a concentration of 20 μM)
Ki [6]: 868 ± 60 nM
Tm of M^pro [7]: 45.0 ± 0.2 °C and 42.8 ± 0.1 °C
DTm (°C) ([7]; 25 mM): -4.2 °C
Fraction unfolded ([7]; 25 mM, 21.5 °C): -0.01003
Fraction unfolded ([7]; 25 mM, 22 °C): -0.02886
Fraction unfolded ([7]; 25 mM, 22.5 °C): -0.03599
Fraction unfolded ([7]; 25 mM, 23 °C): -0.01149
Fraction unfolded ([7]; 25 mM, 23.5 °C): 0.01389
Fraction unfolded ([7]; 25 mM, 24 °C): 0.08488
Fraction unfolded ([7]; 25 mM, 24.5 °C): 0.03781
Fraction unfolded ([7]; 25 mM, 25 °C): -0.07553
Fraction unfolded ([7]; 25 mM, 25.5 °C): 0.01064
Fraction unfolded ([7]; 25 mM, 26 °C): 0.08908
Fraction unfolded ([7]; 25 mM, 26.5 °C): 0.04267
Fraction unfolded ([7]; 25 mM, 27 °C): -0.01602
Fraction unfolded ([7]; 25 mM, 27.5 °C): 0.0059
Fraction unfolded ([7]; 25 mM, 28 °C): -0.0719
Fraction unfolded ([7]; 25 mM, 28.5 °C): 0.01153
Fraction unfolded ([7]; 25 mM, 29 °C): -0.09309
Fraction unfolded ([7]; 25 mM, 29.5 °C): -0.02786
Fraction unfolded ([7]; 25 mM, 30 °C): -0.01911
Fraction unfolded ([7]; 25 mM, 30.5 °C): 0.07168
Fraction unfolded ([7]; 25 mM, 31 °C): 0.0139
Fraction unfolded ([7]; 25 mM, 32 °C): -0.02402
Fraction unfolded ([7]; 25 mM, 32.5 °C): 0.02054
Fraction unfolded ([7]; 25 mM, 66.5 °C): 0.9674
Fraction unfolded ([7]; 25 mM, 67 °C): 1.009
Fraction unfolded ([7]; 25 mM, 67.5 °C): 1.012
Fraction unfolded ([7]; 25 mM, 68 °C): 1.038
Fraction unfolded ([7]; 25 mM, 68.5 °C): 1.026
Fraction unfolded ([7]; 25 mM, 69 °C): 1.004
Fraction unfolded ([7]; 25 mM, 69.5 °C): 1.031
Fraction unfolded ([7]; 25 mM, 70 °C): 1.005
Fraction unfolded ([7]; 25 mM, 70.5 °C): 0.9826
Fraction unfolded ([7]; 25 mM, 71 °C): 1.014
Fraction unfolded ([7]; 25 mM, 71.5 °C): 1.05
Fraction unfolded ([7]; 25 mM, 72 °C): 1.03
Fraction unfolded ([7]; 25 mM, 72.5 °C): 1.006
Fraction unfolded ([7]; 25 mM, 73 °C): 1.029
Fraction unfolded ([7]; 25 mM, 73.5 °C): 0.9779
Fraction unfolded ([7]; 25 mM, 74 °C): 1.013
Fraction unfolded ([7]; 25 mM, 74.5 °C): 1.064
Fraction unfolded ([7]; 25 mM, 75 °C): 1.029
Fraction unfolded ([7]; 25 mM, 75.5 °C): 1.031
Fraction unfolded ([7]; 25 mM, 76 °C): 1.031
Fraction unfolded ([7]; 25 mM, 76.5 °C): 0.9806
Fraction unfolded ([7]; 25 mM, 77 °C): 1.015
Fraction unfolded ([7]; 25 mM, 77.5 °C): 1.011
Fraction unfolded ([7]; 25 mM, 78 °C): 1.0092
Fraction unfolded ([7]; 25 mM, 78.5 °C): 1.012
Fraction unfolded ([7]; 25 mM, 79 °C): 1.059
Fraction unfolded ([7]; 25 mM, 79.5 °C): 0.9461
Fraction unfolded ([7]; 25 mM, 80 °C): 1.0063
DTm (°C) ([7]; 100 mM): -6.4 °C
Fraction unfolded ([7]; 100 mM, 21.5 °C): -0.0719
Fraction unfolded ([7]; 100 mM, 22 °C): 0.01153
Fraction unfolded ([7]; 100 mM, 22.5 °C): -0.09309
Fraction unfolded ([7]; 100 mM, 23 °C): -0.02786
Fraction unfolded ([7]; 100 mM, 23.5 °C): -0.01911
Fraction unfolded ([7]; 100 mM, 24 °C): 0.07168
Fraction unfolded ([7]; 100 mM, 24.5 °C): 0.0139
Fraction unfolded ([7]; 100 mM, 25 °C): 0.01178
Fraction unfolded ([7]; 100 mM, 25.5 °C): -0.02402
Fraction unfolded ([7]; 100 mM, 26 °C): 0.02054
Fraction unfolded ([7]; 100 mM, 26.5 °C): 0.0786
Fraction unfolded ([7]; 100 mM, 27 °C): -0.05017
Fraction unfolded ([7]; 100 mM, 27.5 °C): -0.00904
Fraction unfolded ([7]; 100 mM, 28 °C): -0.01003
Fraction unfolded ([7]; 100 mM, 28.5 °C): -0.02886
Fraction unfolded ([7]; 100 mM, 29 °C): -0.03599
Fraction unfolded ([7]; 100 mM, 29.5 °C): -0.01149
Fraction unfolded ([7]; 100 mM, 30 °C): 0.01389
Fraction unfolded ([7]; 100 mM, 30.5 °C): 0.08488
Fraction unfolded ([7]; 100 mM, 31 °C): 0.03781
Fraction unfolded ([7]; 100 mM, 32 °C): 0.01064
Fraction unfolded ([7]; 100 mM, 32.5 °C): 0.08908
Fraction unfolded ([7]; 100 mM, 66.5 °C): 1.038
Fraction unfolded ([7]; 100 mM, 67 °C): 1.026
Fraction unfolded ([7]; 100 mM, 67.5 °C): 1.004
Fraction unfolded ([7]; 100 mM, 68 °C): 1.031
Fraction unfolded ([7]; 100 mM, 68.5 °C): 1.005
Fraction unfolded ([7]; 100 mM, 69 °C): 0.9826
Fraction unfolded ([7]; 100 mM, 69.5 °C): 1.014
Fraction unfolded ([7]; 100 mM, 70 °C): 1.04
Fraction unfolded ([7]; 100 mM, 70.5 °C): 0.9664
Fraction unfolded ([7]; 100 mM, 71 °C): 0.9851
Fraction unfolded ([7]; 100 mM, 71.5 °C): 0.9877
Fraction unfolded ([7]; 100 mM, 72 °C): 0.9881
Fraction unfolded ([7]; 100 mM, 72.5 °C): 1.095
Fraction unfolded ([7]; 100 mM, 73 °C): 0.9972
Fraction unfolded ([7]; 100 mM, 73.5 °C): 1.057
Fraction unfolded ([7]; 100 mM, 74 °C): 0.8905
Fraction unfolded ([7]; 100 mM, 74.5 °C): 1.0309
Fraction unfolded ([7]; 100 mM, 75 °C): 0.9492
Fraction unfolded ([7]; 100 mM, 75.5 °C): 0.9161
Fraction unfolded ([7]; 100 mM, 76 °C): 1.007
Fraction unfolded ([7]; 100 mM, 76.5 °C): 1.02
Fraction unfolded ([7]; 100 mM, 77 °C): 1.017
Fraction unfolded ([7]; 100 mM, 77.5 °C): 1.029
Fraction unfolded ([7]; 100 mM, 78 °C): 1.021
Fraction unfolded ([7]; 100 mM, 78.5 °C): 1.059
Fraction unfolded ([7]; 100 mM, 79 °C): 0.9805
Fraction unfolded ([7]; 100 mM, 79.5 °C): 0.9855
Fraction unfolded ([7]; 100 mM, 80 °C): 1.001
